Laboratory results from patent publication US6737383B1, “Herbicidal oxadiazolidines” (priority 1999, dated 2004).

Assays:
common pursiane [1] = assay: Test D common purslane; assay type: in vivo, Portulaca oleracea; details: Preemergence, 0 to 100 scale
Summary of the method: (§1)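 Herbicide screen in the greenhouse. A non-phytotoxic solvent mixture with surfactant carried the test chemical; in pre-emergence tests it went onto the soil of pots seeded no more than a day earlier. Injury was scored by eye 14 to 21 days after application, 0 to 100.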

common ragweed = assay: Test D common ragweed; assay type: in vivo, Ambrosia elatior; details: Preemergence, 0 to 100 scale
Text: (§2) Seeds, tubers, or plant parts of Alexandergrass (Brachiaria plantaginea), bermuda-grass (Cynodon dactylon), common pursiane (Portulaca oleracea), common ragweed (Ambrosia elatior), common groundsel (Senecio vulgaris), dallisgrass (Paspalum dilatatum), goosegrass (Eleusine indica), guineagrass (Panicum maximum), itchgrass (Rottboellia exaltata), Johnson grass (Sorghum halepense), large crabgrass (Digitaria sanguinalis), pitted morningglory (Ipomoea lacunosa), purple nutsedge (Cyperus rotundus), sandbur (Cenchrus echinatus), sourgrass (Trichachne insularis), Spanishneedles (Bidens bipinnata), surinam grass (Brachiaria decumbens) and tall mallow (Malva sylvestris) were planted into greenhouse pots of flats containing greenhouse planting medium. Plant species were grown in separate pots or individual compartments. Preemergence applications were made within one day of planting the seed or plant part.
(§3) Test chemicals were formulated in a non-phytotoxic solvent mixture which included a surfactant and applied preemergence to the surface of the pot containing seeds in a sandy loam soil. Untreated control pots and treated pots were placed in the greenhouse for growth and visually evaluated for injury 14 to 21 days after herbicide application. Plant response ratings, summarized in Table C, are based on a 0 to 100 scale where 0 is no injury and 100 is complete control. A dash (−) response means no test result.

Johnson grass [2] = assay: Test D Johnson grass; assay type: in vivo, Sorghum halepense; details: Preemergence, 0 to 100 scale
Summary of the method: as §1

large crabgrass = assay: Test D large crabgrass; assay type: in vivo, Digitaria sanguinalis; details: Preemergence, 0 to 100 scale
Text: as §2, §3

pitted morningglory [3] = assay: Test D pitted morningglory; assay type: in vivo, Ipomoea lacunosa; details: Preemergence, 0 to 100 scale
Summary of the method: as §1

Alexandergrass = assay: Test D Alexandergrass; assay type: in vivo, Brachiaria plantaginea; details: Preemergence, 0 to 100 scale
Summary of the method: as §1

purple nutsedge = assay: Test D purple nutsedge; assay type: in vivo, Cyperus rotundus; details: Preemergence, 0 to 100 scale
Text: as §2, §3

dallisgrass = assay: Test D dallisgrass; assay type: in vivo, Paspalum dilatatum; details: Preemergence, 0 to 100 scale
Text: as §2, §3

tall mallow [4] = assay: Test D tall mallow; assay type: in vivo, Malva sylvestris; details: Preemergence, 0 to 100 scale
Summary of the method: as §1

surinam grass [5] = assay: Test D surinam grass; assay type: in vivo, Brachiaria decumbens; details: Preemergence, 0 to 100 scale
Summary of the method: as §1

bermuda-grass = assay: Test D bermudagrass; assay type: in vivo, Cynodon dactylon; details: Preemergence, 0 to 100 scale
Summary of the method: as §1

common groundsel = assay: Test D common groundsel; assay type: in vivo, Senecio vulgaris; details: Postemergence, 0 to 100 scale
Green foxtail = assay: Test D green foxtail; assay type: in vivo; details: Postemergence, 0 to 100 scale, 0 no injury, 100 complete control
common pursiane [6] = assay: Test D common purslane; assay type: in vivo, Portulaca oleracea; details: Postemergence, 0 to 100 scale
guineagrass = assay: Test D guineagrass; assay type: in vivo, Panicum maximum; details: Postemergence, 0 to 100 scale
Spanishneedles = assay: Test D Spanishneedles; assay type: in vivo, Bidens bipinnata
Johnson grass [7] = assay: Test D Johnson grass; assay type: in vivo, Sorghum halepense; details: Postemergence, 0 to 100 scale
goosegrass = assay: Test D goosegrass; assay type: in vivo, Eleusine indica; details: Postemergence, 0 to 100 scale
pitted morningglory [8] = assay: Test D pitted morningglory; assay type: in vivo, Ipomoea lacunosa; details: Postemergence, 0 to 100 scale
tall mallow [9] = assay: Test D tall mallow; assay type: in vivo, Malva sylvestris; details: Postemergence, 0 to 100 scale
surinam grass [10] = assay: Test D surinam grass; assay type: in vivo, Brachiaria decumbens; details: Postemergence, 0 to 100 scale
[11] = Rate 32 g/ha, 0 no injury, 100 complete control
[12] = Rate 64 g/ha, 0 no injury, 100 complete control
[13] = Rate 125 g/ha, 0 no injury, 100 complete control
[14] = Rate 16 g/ha, 0 no injury, 100 complete control

Cc1cccc(C)c1-n1c(=O)on(C(=O)N(c2ccc(F)cc2F)C(C)C)c1=O [Compound 28]
Plant response rating, C. purslane (common pursiane [1]; [11]): 0 | Plant response rating, C. purslane (common pursiane [1]; [12]): 0 | Plant response rating, C. purslane (common pursiane [1]; [13]): 0 | Plant response rating, C. purslane (common pursiane [1]; Rate 250 g/ha): 0 | Plant response rating, C. ragweed (common ragweed; [11]): 0 | Plant response rating, C. ragweed (common ragweed; [12]): 0 | Plant response rating, C. ragweed (common ragweed; [13]): 0 | Plant response rating, C. ragweed (common ragweed; Rate 250 g/ha): 0 | Plant response rating Johnsongrass (Johnson grass [2]; [11]): 0 | Plant response rating Johnsongrass (Johnson grass [2]; [12]): 0 | Plant response rating Johnsongrass (Johnson grass [2]; [13]): 0 | Plant response rating Johnsongrass (Johnson grass [2]; Rate 250 g/ha): 0 | Plant response rating Large crabgrass (large crabgrass; [11]): 85 | Plant response rating Large crabgrass (large crabgrass; [12]): 98 | Plant response rating Large crabgrass (large crabgrass; [13]): 100 | Plant response rating Large crabgrass (large crabgrass; Rate 250 g/ha): 100 | Plant response rating, P. morninglory (pitted morningglory [3]; [11]): 0 | Plant response rating, P. morninglory (pitted morningglory [3]; [12]): 0 | Plant response rating, P. morninglory (pitted morningglory [3]; [13]): 0 | Plant response rating, P. morninglory (pitted morningglory [3]; Rate 250 g/ha): 0 | Plant response rating, Alexandergrass (Alexandergrass; [11]): 0 | Plant response rating, Alexandergrass (Alexandergrass; [12]): 0 | Plant response rating, Alexandergrass (Alexandergrass; [13]): 60 | Plant response rating, Alexandergrass (Alexandergrass; Rate 250 g/ha): 75 | Plant response rating, Purple nutsedge (purple nutsedge; [11]): 0 | Purple nutsedge plant response rating (purple nutsedge; [12]): 0 | Purple nutsedge plant response rating (purple nutsedge; [13]): 0 | Plant response rating, Purple nutsedge (purple nutsedge; Rate 250 g/ha): 0 | Plant response rating, Dallisgrass (dallisgrass; [11]): 30 | Plant response rating, Dallisgrass (dallisgrass; [12]): 75 | Plant response rating, Dallisgrass (dallisgrass; [13]): 85 | Plant response rating, Dallisgrass (dallisgrass; Rate 250 g/ha): 100 | Plant response rating, Tall Mallow (tall mallow [4]; [11]): 0 | Tall Mallow plant response rating (tall mallow [4]; [12]): 0 | Tall Mallow plant response rating (tall mallow [4]; [13]): 0 | Plant response rating, Tall Mallow (tall mallow [4]; Rate 250 g/ha): 0 | Plant response rating, Surinam grass (surinam grass [5]; [11]): 0 | Surinam grass plant response rating (surinam grass [5]; [12]): 0 | Surinam grass plant response rating (surinam grass [5]; [13]): 65 | Plant response rating, Surinam grass (surinam grass [5]; Rate 250 g/ha): 75 | Plant response rating, Bermudagrass (bermuda-grass; [11]): 85 | Plant response rating, Bermudagrass (bermuda-grass; [12]): 100 | Plant response rating, Bermudagrass (bermuda-grass; [13]): 100 | Plant response rating, Bermudagrass (bermuda-grass; Rate 250 g/ha): 100

CC(C)N(C(=O)n1oc(=O)n(C2CC2)c1=O)c1ccccc1 [Compound 243]
Plant response rating, Com. groundsel (common groundsel; [14]): 0 | Plant response rating, Com. groundsel (common groundsel; [11]): 0 | Plant response rating, Com. groundsel (common groundsel; [12]): 0 | Plant response rating, Com. groundsel (common groundsel; [13]): 100 | Plant response rating, Com. groundsel (common groundsel; Rate 250 g/ha): 100 | Plant response rating, Green foxtail (Green foxtail; Rate 16 g/ha): 10 | Plant response rating, Green foxtail (Green foxtail; Rate 32 g/ha): 100 | Plant response rating, C. purslane (common pursiane [6]; [14]): 0 | Plant response rating, C. purslane (common pursiane [6]; [11]): 0 | Plant response rating, C. purslane (common pursiane [6]; [12]): 0 | Plant response rating, C. purslane (common pursiane [6]; [13]): 0 | Plant response rating, C. purslane (common pursiane [6]; Rate 250 g/ha): 0 | Plant response rating, Guineagrass (guineagrass; [14]): 0 | Plant response rating, Guineagrass (guineagrass; [11]): 0 | Guineagrass plant response rating (guineagrass; [12]): 0 | Plant response rating, Guineagrass (guineagrass; [12]): 20 | Plant response rating, Guineagrass (guineagrass; [13]): 100 | Plant response rating, Guineagrass (guineagrass; Rate 250 g/ha): 100 | Plant response rating, Spanishneedles (Spanishneedles; Postemergence; Rate 32 g/ha; 0 to 100 scale, 0 no injury, 100 complete control): 50 | Plant response rating, Spanishneedles (Spanishneedles; Rate 16 g/ha; Postemergence; 0 to 100 scale, 0 no injury, 100 complete control): 0 | Plant response rating, Spanishneedles (Spanishneedles; Rate 32 g/ha; Postemergence; 0 to 100 scale, 0 no injury, 100 complete control): 0 | Spanishneedles plant response rating (Spanishneedles; Rate 64 g/ha, Postemergence; 0 to 100 scale, 0 no injury, 100 complete control): 50 | Spanishneedles plant response rating (Spanishneedles; Rate 125 g/ha, Postemergence; 0 to 100 scale, 0 no injury, 100 complete control): 20 | Plant response rating, Spanishneedles (Spanishneedles; Rate 250 g/ha; Postemergence; 0 to 100 scale): 100 | Plant response rating Johnsongrass (Johnson grass [7]; [14]): 0 | Plant response rating Johnsongrass (Johnson grass [7]; [11]): 0 | Plant response rating Johnsongrass (Johnson grass [7]; [12]): 0 | Plant response rating Johnsongrass (Johnson grass [7]; [13]): 30 | Plant response rating Johnsongrass (Johnson grass [7]; Rate 250 g/ha): 100 | Plant response rating, Goosegrass (goosegrass; [14]): 70 | Plant response rating, Goosegrass (goosegrass; [11]): 80 | Plant response rating, Goosegrass (goosegrass; [12]): 100 | Plant response rating, Goosegrass (goosegrass; [13]): 100 | Plant response rating, Goosegrass (goosegrass; Rate 250 g/ha): 100 | Plant response rating, P. morninglory (pitted morningglory [8]; [14]): 0 | Plant response rating, P. morninglory (pitted morningglory [8]; [11]): 0 | Plant response rating, P. morninglory (pitted morningglory [8]; [12]): 0 | Plant response rating, P. morninglory (pitted morningglory [8]; [13]): 0 | Plant response rating, P. morninglory (pitted morningglory [8]; Rate 250 g/ha): 40 | Plant response rating, Tall Mallow (tall mallow [9]; [14]): 50 | Plant response rating, Tall Mallow (tall mallow [9]; [11]): 20 | Tall Mallow plant response rating (tall mallow [9]; [12]): 30 | Tall Mallow plant response rating (tall mallow [9]; [13]): 40 | Plant response rating, Tall Mallow (tall mallow [9]; Rate 250 g/ha): 60 | Plant response rating, Surinam grass (surinam grass [10]; [14]): 0 | Plant response rating, Surinam grass (surinam grass [10]; [11]): 20 | Surinam grass plant response rating (surinam grass [10]; [12]): 90 | Surinam grass plant response rating (surinam grass [10]; [13]): 100 | Plant response rating, Surinam grass (surinam grass [10]; Rate 250 g/ha): 100
